Test results reported in patent US20180042765A1, “METHODS AND DEVICES FOR TREATING POSTERIOR OCULAR DISORDERS” (CLEARSIDE BIOMEDICAL, INC., priority 2014, published 2018).
“Also recorded” adds a separate entry of the source.

Experiments:
[1] = tested on: patients with non-infectious uveitis; experiment: Phase 1/2 open-label safety and tolerability study of TA administered to the suprachoroidal space; type: in vivo, human
Procedure: A clinical trial was designed to evaluate the safety and tolerability of a single injection of TA (triamcinolone acetonide administered as TRIESCENCE™) into the SCS in patients diagnosed with non-infectious uveitis.
Each mL of the sterile, aqueous suspension of TRIESENCE™ provides […] of triamcinolone acetonide, with sodium chloride for isotonicity, 0.5% (w/v) carboxymethylcellulose sodium and 0.015% polysorbate 80. It also contains potassium chloride, calcium chloride (dihydrate), magnesium chloride (hexahydrate), sodium acetate (trihydrate), sodium citrate (dihydrate) and water for injection. Sodium hydroxide and hydrochloric acid may be present to adjust pH to a target value 6-7.5.
The primary purpose of this trial was to evaluate the overall safety and tolerability of treating uveitis patients (non-infectious uveitis—intermediate, posterior or pan-uveitis) by administering a triamcinolone into the SCS via a single suprachoroidal injection. Eligibility criteria include adult patients with non-infectious uveitis experiencing either macular edema or vitreous haze, a common complication of uveitis. This was in order to determine whether SCS administration of TA could improve patient vision through reducing the effects of either condition. For inclusion in the trial, patients must have IOP (intra-ocular pressure) of no greater than 22 mmHg
Each patient enrolled received a single SCS microinjection of 4.0 mg (100 μL) of triamcinolone acetonide of day 1. Patients returned for a follow-up examination on the day after the injection and then for eight additional evaluations at weeks 1, 2, 4, 8, 12, 16, 20 and 26 following the treatment. Patients may receive other treatment at any time during the trial with any accepted therapy based on their physician's best medical judgment, if their condition deteriorates or if the physician otherwise determines it to be advisable. In the event a patient received other treatment, the patient was followed for the duration of the trial for safety purposes, but efficacy measures were no longer considered thereafter.
Patients received the single SCS injection 4 mm posterior to limbus and received an ultrasound assessment of scleral thickness immediately after injection.
Endpoints. The main safety endpoint was changes from baseline in intraocular pressure (TOP). Also assessed was an efficacy endpoint relating to changes in best-corrected visual acuity, or BCVA, as well as changes in excess retinal thickness.

[2] = tested on: patients; conditions: in vivo; cited from earlier work
[3] = tested on: porcine model of acute posterior uveitis (intravitreal LPS); experiment: Porcine model of acute uveitis: modified Hackett-McDonald ocular inflammation score; type: in vivo, pigs
[4] = tested on: porcine model of acute posterior uveitis (intravitreal LPS); experiment: Porcine model of acute uveitis: intraocular pressure (TonoVet); type: in vivo, pigs; conditions: Day 3, low dose 0.1 mg/kg/day PO, P<0.0065
Procedure: (§1) Twenty four hours after the induction of acute uveitis by intraocular lipopolysaccharide (LPS) injection (Day 0) into the vitreous, 50 μL of balanced salt solution (BSS, Group 1) or triamcinolone (CLS-TA) (2 mg, Group 3) was injected into the suprachoroidal space (SCS). In Groups 2 and 4, oral prednisone (1 mg/kg/day, Group 2 or 0.1 mg/kg/day, Group 4) was dosed on Day 0, and repeated every 24 hours until euthanasia on day 3. Eyes were examined every 24 hours, which included measuring inflammation scores (Modified Hackett-McDonald) and intraocular pressure (TOP) until euthanasia 3 days after initiation of treatment. Safety assessments and histopathology were performed on all eyes. Electroretinography and wide-field fundus photography was performed at −24 hours, time 0 (before treatment) and on Day 3. Histopathology was performed on eyes after euthanasia.
Treatment. […]
Intraocular Pressure. Intraocular pressure (TOP) was measured with the pigs awake and hand restrained at −144, −96, −24, 0, 24, 48, and 72 hours (see FIG. 1) using a TonoVet Tonometer (iCare, Finland). […] After the six measurements, the mean IOP was shown on the display providing the IOP that was recorded.
Data and Statistical Analysis. […] Results and probabilities were calculated using computerized statistical software (JMP 10, SAS Inc. Cary, N.C.).

[5] = tested on: porcine model of acute posterior uveitis (intravitreal LPS); experiment: Porcine model of acute uveitis: wide-field ocular fundus digital photography; type: in vivo, pigs; conditions: 72 hours
Procedure: as §1, with “-24” for “−24”, “euthanasia. Wide-field Ocular Fundus Digital Photography. With the pigs anesthetized at times -24, 0 and 72 hours, and pupils dilated with tropicamide 1%, the ocular fundus was photographed with standardized illumination and focus using a wide-field digital imaging system ([…], Clarity Medical Systems, Pleasanton, Calif.).” for “euthanasia.”

[6] = tested on: porcine model of acute posterior uveitis (intravitreal LPS); experiment: Porcine model of acute uveitis: ocular histopathology; type: in vivo, pigs

For `CC1(C)O[C@@H]2C[C@H]3[C@@H]4CCC5=CC(=O)C=C[C@]5(C)[C@@]4(F)[C@@H](O)C[C@]3(C)[C@]2(C(=O)CO)O1` [TA, triamcinolone acetonide], the “patients with meaningful improvements in BCVA” value ([1]; 26 weeks after single SCS injection of TA on Day 1) was “Four of the eight patients”, the “gain in BCVA” value ([1]; 26 weeks after single SCS injection, four of the eight patients) was “about 3 lines” and the “decrease in retinal thickness (OCT), SCS injection compared to sub-tenon injection” value ([1]; one patient, bilateral uveitis, 4 mg TA SCS in one eye, 20 mg TA sub-tenon in the other eye) was “greater decrease in retinal thickness”. For the same molecule, the “OCT appearance of eye treated with TA via suprachoroidal injection vs Ozurdex treated eye” value ([1]; one patient, bilateral uveitis, four to six weeks after treatment) was “looks better than the intravitreally Ozurdex treated eye”, the “average reduction in CME” value ([1]; seven patients, single TA injection into the SCS) was “about 20%” and the deaths ([1]; single SCS injection 4.0 mg (100 μL) TA, eight patients) was “No deaths”. The “mean reduction in macular edema (retinal thickness)” value ([1]; week 26, single TA injection into the SCS, seven patients with macular edema) was “over 100 microns” and the “patients with cataracts and increases in IOP levels” value [2] was 20-60%.

With `C[C@]12C=CC(=O)C=C1CC[C@@H]1[C@@H]2C(=O)C[C@@]2(C)[C@H]1CC[C@]2(O)C(=O)CO` [prednisone] the “mean cumulative inflammation score compared with Group 1 (BSS)” value ([3]; Day 3 (72 hours), high dose 1 mg/kg/day PO, P<0.034) was “significantly lower”, the “mean cumulative inflammation score compared with saline treated eyes” value ([3]; any treatment time, low dose 0.1 mg/kg/day PO) was “not significantly different than saline treated eyes” and the “reduction of ocular inflammation relative to low dose prednisone” value ([3]; high dose 1 mg/kg/day PO) was “more effective than low dose prednisone”. The “time to reduction of inflammation” value ([3]; high dose 1 mg/kg/day PO) was “three days”, the “mean IOP compared with the other groups” value [4] was “significantly lower than Groups 1, 2, and 3; also recorded: significantly lower IOP than all other groups” and the wide-field fundus images ([5]; high dose 1 mg/kg/day PO) was “near pre-treatment appearance”. For the same molecule, the wide-field fundus images ([5]; low dose 0.1 mg/kg/day PO) was “only slightly improved over vehicle treated eyes”, the “mean histologic score of the posterior segment compared with low dose oral prednisone (Group 4)” value ([6]; high dose 1 mg/kg/day PO, P<0.013) was “lower than the mean score of eyes treated with low dose oral prednisone” and the “mean histologic score of the anterior segment compared with saline (Group 1)” value ([6]; oral 0.1 mg/kg/day (Group 4)) was “not significantly different than Group 1”. For the same molecule, the “mean histologic score of the anterior segment compared with saline (Group 1)” value ([6]; oral 1 mg/kg/day (Group 2)) was “not significantly different than Group 1”.
